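All cell lines were grown in 96-well plates and treated with compound for 48 hours. The concentration for 50% growth inhibition is given as GI50. Definition used: TGI = concentration required for complete inhibition of growth.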
Legend:
Assay in all cases: growth of human tumour cells (NCI), 48 h
NCI-H23 lung = system: NCI-H23 lung
LOX IMVI melanoma = system: LOX IMVI melanoma
SN12C renal = system: SN12C renal
SK-MEL-2 melanoma = system: SK-MEL-2 melanoma
HOP-62 NSCLC = system: HOP-62 NSCLC
SK-MEL-28 melanoma = system: SK-MEL-28 melanoma
MDA-MB-435 = system: MDA-MB-435
DU-145 prostate = system: DU-145 prostate

## O=C(O)c1cccc(OCCO)c1
NCI-H23 lung
  TGI: > 100 µM
LOX IMVI melanoma
  TGI: > 100 µM
SN12C renal
  TGI: > 100 µM
SK-MEL-2 melanoma
  TGI: > 100 µM
HOP-62 NSCLC
  TGI: > 100 µM
SK-MEL-28 melanoma
  TGI: > 100 µM
MDA-MB-435
  TGI: > 100 µM
DU-145 prostate
  TGI: > 100 µM

## CCOC(=O)C1=C(C)N(N)C(=S)NC1c1ccc(C)cc1 (stereo unspecified)
NCI-H23 lung
  GI50: 63.9 µM
  TGI: > 100 µM
LOX IMVI melanoma
  GI50: 9.19 µM
  TGI: > 100 µM
SN12C renal
  GI50: > 100 µM
  TGI: > 100 µM
SK-MEL-2 melanoma
  GI50: 21.4 µM
  TGI: > 100 µM
HOP-62 NSCLC
  GI50: > 100 µM
  TGI: > 100 µM
SK-MEL-28 melanoma
  GI50: 6.99 µM
  TGI: > 100 µM
MDA-MB-435
  GI50: 14.8 µM
  TGI: 72.2 µM
DU-145 prostate
  TGI: 12.3 µM

## Cc1[nH][nH]c(=O)c1C=Nc1ccc(-c2nc3ccccc3[nH]2)cc1
LOX IMVI melanoma
  GI50: 16.8 µM
  TGI: 30.5 µM
SN12C renal
  GI50: 36.7 µM
  TGI: 96.5 µM
SK-MEL-2 melanoma
  GI50: 23.3 µM
  TGI: 48 µM
MDA-MB-435
  GI50: 16.8 µM
  TGI: 33.7 µM
DU-145 prostate
  GI50: 34.8 µM
  TGI: > 100 µM

## COC(COC(=O)N1CCN(C=O)CC1)C1=C(N2CC2)C(=O)C(C)=C(N2CC2)C1=O (stereo unspecified)
NCI-H23 lung
  TGI: 0.926 µM
LOX IMVI melanoma
  TGI: 0.613 µM
SN12C renal
  TGI: 1.14 µM
HOP-62 NSCLC
  TGI: 6.57 µM
SK-MEL-28 melanoma
  TGI: 3.33 µM
MDA-MB-435
  TGI: 0.976 µM
DU-145 prostate
  TGI: 4.01 µM

## O=c1[nH]c2cc(Cl)ccc2n1C1CCN(CCCC(c2ccc(F)cc2)c2ccc(F)cc2)CC1
NCI-H23 lung
  GI50: 1.74 µM
  TGI: 3.43 µM
LOX IMVI melanoma
  GI50: 1.56 µM
  TGI: 2.89 µM
SN12C renal
  GI50: 1.78 µM
  TGI: 3.27 µM
SK-MEL-2 melanoma
  GI50: 1.7 µM
  TGI: 3.35 µM
HOP-62 NSCLC
  GI50: 1.55 µM
  TGI: 3.05 µM
SK-MEL-28 melanoma
  GI50: 1.47 µM
  TGI: 3.1 µM
MDA-MB-435
  GI50: 1.32 µM
  TGI: 2.63 µM
DU-145 prostate
  GI50: 1.82 µM
  TGI: 3.32 µM

## Cc1c[n+](Cc2ccc3ccccc3c2)cn1Cc1ccc2ccccc2c1
NCI-H23 lung
  GI50: 1.49 µM
  TGI: 3.97 µM
LOX IMVI melanoma
  GI50: 1.34 µM
  TGI: 2.7 µM
SN12C renal
  GI50: 1.67 µM
  TGI: 3.33 µM
SK-MEL-2 melanoma
  GI50: 1.85 µM
  TGI: 3.68 µM
HOP-62 NSCLC
  GI50: 1.61 µM
  TGI: 3.8 µM
SK-MEL-28 melanoma
  GI50: 1.8 µM
  TGI: 3.7 µM
MDA-MB-435
  GI50: 1.28 µM
  TGI: 3.03 µM
DU-145 prostate
  GI50: 2.55 µM
  TGI: 9.61 µM

## O/N=C\c1c(O)ccc2ccccc12
NCI-H23 lung
  TGI: > 100 µM
LOX IMVI melanoma
  TGI: > 100 µM
SN12C renal
  TGI: > 100 µM
HOP-62 NSCLC
  TGI: > 100 µM
SK-MEL-28 melanoma
  TGI: > 100 µM
MDA-MB-435
  TGI: > 100 µM

## c1ccc2c3ccn4cc5c(cc4c-3nc2c1)CCCC5
NCI-H23 lung
  GI50: 3.13 µM
  TGI: 14.7 µM
SN12C renal
  GI50: 3.57 µM
  TGI: 16.2 µM
SK-MEL-2 melanoma
  GI50: 3.05 µM
  TGI: 10.2 µM
HOP-62 NSCLC
  GI50: 3.5 µM
  TGI: 13.1 µM
SK-MEL-28 melanoma
  GI50: 2.38 µM
  TGI: 11.7 µM
MDA-MB-435
  GI50: 1.56 µM
  TGI: 4.19 µM
DU-145 prostate
  GI50: 2.31 µM
  TGI: 10.5 µM

## CCN(CC)CCNCC(=O)Oc1ccc(/C=C/C(=O)CC(=O)/C=C/c2ccc(OC(=O)CNCCN(CC)CC)c(OC)c2)cc1OC
LOX IMVI melanoma
  GI50: 2.13 µM
  TGI: 4.71 µM
SN12C renal
  GI50: 3.32 µM
  TGI: 79.6 µM
SK-MEL-2 melanoma
  GI50: 3.39 µM
  TGI: 12.7 µM
HOP-62 NSCLC
  GI50: 3.34 µM
  TGI: 12.8 µM
SK-MEL-28 melanoma
  GI50: 4.16 µM
  TGI: 46.2 µM
MDA-MB-435
  GI50: 2.48 µM
  TGI: 12.4 µM
DU-145 prostate
  GI50: 2.74 µM
  TGI: 9.56 µM

## CC(=O)Oc1ccccc1C(=O)N=C1[Se]CCN1C(=O)c1ccccc1OC(C)=O
NCI-H23 lung
  GI50: 1.56 µM
  TGI: 5.43 µM
SK-MEL-2 melanoma
  GI50: 1.42 µM
  TGI: 3.91 µM
HOP-62 NSCLC
  GI50: 0.546 µM
  TGI: 1.88 µM
SK-MEL-28 melanoma
  GI50: 0.492 µM
  TGI: 3.25 µM
MDA-MB-435
  GI50: 0.462 µM
  TGI: 1.87 µM
DU-145 prostate
  GI50: 0.61 µM
  TGI: 2.18 µM

## Cc1cn2c(/C=C3/C(=O)Nc4ccccc43)c(-c3ccc(Cl)cc3)nc2s1
LOX IMVI melanoma
  GI50: 5.84 µM
  TGI: 12 µM
SK-MEL-2 melanoma
  GI50: 30.8 µM
  TGI: > 50 µM
HOP-62 NSCLC
  GI50: 8.46 µM
  TGI: 15.3 µM
MDA-MB-435
  GI50: 8.07 µM
  TGI: 14.8 µM

## COc1cc2c(cc1OC)C13CCN4CC5=CCOC6CC(=O)N2C1C6C5CC43O (stereo unspecified)
NCI-H23 lung
  TGI: > 100 µM
LOX IMVI melanoma
  TGI: > 100 µM
SN12C renal
  TGI: > 100 µM
SK-MEL-2 melanoma
  TGI: > 100 µM
SK-MEL-28 melanoma
  TGI: > 100 µM
MDA-MB-435
  TGI: > 100 µM
DU-145 prostate
  TGI: > 100 µM

## COC(=O)[C@@H](NC(=O)[C@@H](OC)[C@@H]1Cc2cc3cc(OC4CC(OC5CC(O)C(O)C(C)O5)C(O)C(C)O4)c(C)c(O)c3c(O)c2C(=O)[C@H]1OC1CC(OC2CC(OC3CC(C)(O)C(O)C(C)O3)C(O)C(C)O2)C(O)C(C)O1)C(C)C (stereo partly specified)
NCI-H23 lung
  GI50: 0.144 µM
  TGI: 13.5 µM
SN12C renal
  GI50: 0.145 µM
  TGI: > 32.5 µM
SK-MEL-2 melanoma
  GI50: 0.194 µM
  TGI: 7.94 µM
HOP-62 NSCLC
  GI50: 0.0824 µM
  TGI: > 32.5 µM
SK-MEL-28 melanoma
  GI50: 0.0971 µM
  TGI: 6.04 µM
MDA-MB-435
  GI50: 0.13 µM
  TGI: > 32.5 µM
DU-145 prostate
  GI50: 0.158 µM
  TGI: > 32.5 µM

## OCCCCC#Cc1ccccc1C#Cc1cccc(O)c1
NCI-H23 lung
  GI50: 18 µM
  TGI: 36.1 µM
LOX IMVI melanoma
  GI50: 16.7 µM
  TGI: 30.9 µM
SN12C renal
  GI50: 17.9 µM
  TGI: 40 µM
SK-MEL-2 melanoma
  GI50: 18.6 µM
  TGI: 38.8 µM
SK-MEL-28 melanoma
  GI50: 14.2 µM
  TGI: 28.2 µM
MDA-MB-435
  GI50: 16.1 µM
  TGI: 32.8 µM
DU-145 prostate
  GI50: 17.4 µM
  TGI: 40.9 µM

Reference: PubChem BioAssay (NCI)
